As usually defined, the pKa is the pH at which an ionisable group is half protonated. Higher therefore signals a group that holds its proton tightly.

Regarding `COC(=O)Nc1ncnc2nc[nH]c12`, the pKa was 9.68 (acidic group) and 2.27 (basic group).

Regarding `NC[C@@H](O)[C@H]1NC(N)=N[C@@H]1C(=O)[O-]`, the pKa (basic group) amounted to 11.9.

For the molecule `O=S(=O)(Nc1ncccn1)c1ccc(O)cc1`, the pKa (acidic group) was 6.37.

Turning to `O=C(O)C1(O)CCC1`, where the note is “acidic group”, the pKa was 3.88.

With `O=P([O-])([O-])C(NCc1cccnc1)c1ccccc1[O-]` (centres undefined), the pKa (basic group) amounted to 12.2.

Take `C=CCN(CC=C)CCCN(CC=C)CC=C`: the pKa (basic group) was 8.8.

Molecule `NCCCCOc1c2ccccc2cc2ccccc12` displayed a pKa (basic group) of 9.94.

As to `Cc1ccc(/C(N)=N/O)cc1`, the pKa (basic group) was 5.14.

Take `CCN(CC)Cc1cccc(C)c1[O-]`: the pKa (basic group) turned out to be 10.9.

As to `O=C(O)c1ccc([N+](=O)[O-])cc1O`, under “acidic group”, the pKa worked out at 1.83.

Under “acidic group”, `CCN(CC)CC(=N\O)/C(C)=N/O` showed a pKa of 10.7.

With `CC(C)c1ccc2c(c1)CC[C@H]1[C@](C)(C(=O)O)CCC[C@]21C`, where the note is “acidic group”, the pKa came to 5.7.

In turn, `Cc1nc(Cc2ccccc2)c(O)o1` returned a pKa (acidic group) of 10.3.

The molecule `CC(=O)CC(=O)c1ccc[se]1` displayed a pKa (acidic group) of 8.55.

With `OCCCNc1nc(NCCCO)nc(NCCCO)n1`, the pKa (basic group) was 5.48.

For `Nc1ccc(F)cc1`, where the note is “basic group”, the pKa was 4.64.

Under “acidic group”, `O=c1c(O)c1-c1ccccc1` came in with a pKa of 2.01.

`Nc1ccc(S(=O)(=O)Nc2ccn(-c3cccc([N+](=O)[O-])c3)n2)cc1` had a pKa (acidic group) of 7.03.

With `C(CSCCc1nnn[nH]1)SCCc1nnn[nH]1`, for the setting “acidic group”, the pKa was 5.

On to `NCc1ccc(F)c([O-])c1`, for which the pKa (basic group) came out at 10.

`NC(=O)Nc1[nH]cnc1C(=O)[O-]` registered a pKa (acidic group) of 12.2 and a pKa (basic group) of 4.9.

For `CCC(P)C(=O)O` (centres undefined), where the note is “acidic group”, the pKa was found to be 4.08.

As for `C#CCNCC#C`, the pKa (basic group) was determined as 6.08.

As for `CN(C)CCN`, the pKa (basic group) amounted to 9.53.

On to `O=C(O)[C@@H]1O[C@H](Oc2ccc(-c3ccccc3)cc2)[C@@H](O)[C@H](O)[C@H]1O`, for which the pKa (acidic group) stood at 3.1.

In the case of `COc1ccc2c3c1O[C@H]1[C@@H](O)C=C[C@H]4[C@@H]([C@H]2O)N(C)CC[C@@]341`, the pKa (basic group) amounted to 7.12.

Molecule `CC[C@]1(O)C[C@@H](C)N[C@H]2CCCC[C@@H]21` registered a pKa (basic group) of 9.71.

As for `NC1=NS(=O)(=O)[N-]c2nc[nH]c21`, the pKa (acidic group) is 12.2.

`[S-]CCNCCc1ccccc1`: the pKa (basic group) was determined as 10.3.

The molecule `O=[N+]([O-])c1cccc2c[n+](CCCO)ccc12` displayed a pKa (acidic group) of 10.4.

Where the note is “basic group”, `CCSC(=N)c1ccccc1` displayed a pKa of 6.05.

The molecule `CC(C)c1csc(C(=O)O)c1` showed a pKa (acidic group) of 3.64.

`O=[PH]([O-])C(NCc1ccncc1)c1ccccc1O` (centres undefined): the pKa (acidic group) was determined as 11.9 and the pKa (basic group) worked out at 8.05.

`CCC(=O)OC(C)CN(C)C` (centres undefined) showed a pKa (basic group) of 8.26.

For the setting “acidic group”, `[O-][n+]1cccc(O)c1` showed a pKa of 6.4.

Take `CC[NH+](CC)CCCC(C)Nc1cc(C)nc2cc(Cl)ccc12` (centres undefined): the pKa (basic group) was determined as 8.52.

`CCCNc1ccncc1S(=O)(=O)NC(=O)NC(C)C` came in with a pKa (basic group) of 7.58.

With `CC1=NCCc2c1[nH]c1ccccc21`, the pKa (acidic group) turned out to be 14.9 and the pKa (basic group) came to 8.99.

The molecule `S=c1[nH]c2ccccc2o1` yielded a pKa (acidic group) of 6.33.

In turn, `CCC(=O)C1(c2cccc(O)c2)CCN(C)CC1` returned a pKa (basic group) of 8.67.

Under “acidic group”, `Cc1ccc([N+](=O)[O-])c(C(=O)O)c1` showed a pKa of 2.55.

For the molecule `CNCC[S-]`, where the note is “basic group”, the pKa turned out to be 10.8.

`CN1C(=S)NC(=O)C12CCCCC2`: the pKa (acidic group) was determined as 9.25.

`C[S+](C)c1cccc(O)c1`: the pKa (acidic group) turned out to be 7.67.

For the setting “basic group”, `NCCNCc1ccccc1` displayed a pKa of 9.41.

With `c1c(CN2CCNCCNCC2)n[nH]c1CN1CCNCCNCC1`, the pKa (basic group) is 11.2.

In turn, `NC(=O)c1c2cccc1COCCOCc1ncc([nH]1)COCCOC2` had a pKa (basic group) of 5.72.

The molecule `O=C(O)[C@@H]1O[C@H](Oc2cccc3[nH+]cccc23)[C@@H](O)[C@H](O)[C@H]1O` came in with a pKa (acidic group) of 3.1.

For the molecule `CC(C)C1CC(CC(=O)O)[NH2+]C1C(=O)[O-]` (centres undefined), the pKa (acidic group) worked out at 4.

On to `Cc1cc(O)ccc1Cl`, for which the pKa (acidic group) was determined as 9.4.

As to `c1c[nH]c(P(c2[nH]cc[nH+]2)c2[nH]cc[nH+]2)n1`, the pKa (basic group) worked out at 5.26.

As for `CCC(C)CC(=O)O` (centres undefined), under “acidic group”, the pKa came out at 4.84.

For the setting “basic group”, `CC1=CCCN1C` yielded a pKa of 11.9.

`COc1ccc(OC)c2c1nc(C)n2C` displayed a pKa (basic group) of 6.12.

`CN1C(=N)C(C)(C)c2ccccc21` had a pKa (basic group) of 9.25.

As for `[NH3+]CCc1cnc[nH]1`, for the setting “basic group”, the pKa was found to be 6.28.

Molecule `O=[N+]([O-])c1ccc(O)c(C[NH+]2CCOCCOCCOCCOCC2)c1` displayed a pKa (acidic group) of 5.79.

The molecule `O=[N+]([O-])c1ccccc1O` gave a pKa (acidic group) of 7.15.

Consider `CCO/C([O-])=N/c1ncnc2nc[nH]c12`, for which the pKa (acidic group) is 12.2.

Under “basic group”, `CN1[C@@H]2CC[C@H]1C[C@@H](O)C2` showed a pKa of 9.86.

With `C[C@H](O)C(=O)C1=Nc2c([O-])nc(N)nc2NC1`, the pKa (basic group) is 10.1.

For `COc1ccc(/C=N/O)cc1`, the pKa (acidic group) worked out at 11.

`Cc1ccccc1/C(=N/CCC[NH+](C)C)c1ccccc1` gave a pKa (basic group) of 4.29.

`CN1C[C@@H](CO)C[C@H]2c3cccc4[nH]cc(c34)C[C@@H]21` registered a pKa (basic group) of 8.3.

For `COc1ccc(NCCS)cc1`, the pKa (basic group) was found to be 5.3.

(Values after the pKa sets of Baltruschat and Czodrowski (2020).)
